Results reported in patent publication US20250320471A1, “Method for Producing Compounds, Method for Producing Compound Library, Compound Library, and Screening Method” (The University of Tokyo, priority 2021, published 2025).

Assays:
LimF [1] = assay: His-prenylation of low molecular weight compounds, peptides and proteins by LimF; type: biochemical, Limnothrix sp. CACIAM 69d; conditions: 125 μM substrate, 100 μM LimF, 2 mM GPP, 20 hours, standard conditions
From the text: Next, various low molecular weight compounds, peptides, and proteins, including various compounds that have already been approved as pharmaceuticals, were subjected to His-prenylation facilitated by LimF.

GLP1R = biological target: T1, GLP1R (Homo sapiens, UniProt P43220); assay: cAMP production activation test (cAMP Hunter eXpress GLP1R CHO-K1 GPCR assay kit); type: cell-based; conditions: GLP1R CHO-K1 cells
T1 construct: host or cells: CHO-K1
Description: The concentration range of the used peptides was from 0.33 μM to 20 nM.

Serum stability test = conditions: 5 μM peptide in human serum at 37° C.
Description: After various incubation times, a sample of 4 μL was taken from the reaction system, and the reaction was stopped by mixing with an equal amount (4 L) of methanol. After centrifugation at 13,000 rpm for 5 minutes, the supernatant was collected, and after adding 4 times the amount of 1% TFA-aqueous solution, centrifugation was performed for an additional 5 minutes. 1 μL of the obtained supernatant was measured by LC/MS, and the amount of each remaining peptide was quantified.

DPP-4 = DPP-4 (Homo sapiens, UniProt P27487); assay: DPP-4 digestion test; conditions: 5 μM peptide, Tris-Cl pH 8.0, 2.5 ng/L DPP-4, 37° C.
Description: After various incubation times, a sample of 4 μL was taken from the reaction system, and the reaction was stopped by adding 4 times the amount (16 L) of a 1% TFA-aqueous solution. After centrifugation at 13,000 rpm for 5 minutes, 1 μL of the supernatant was measured by LC/MS, and the amount of each remaining peptide was quantified.

PagF = conditions: Tyr C5 O-prenylation; cited from earlier work
LynF = conditions: Tyr C5 O-prenylation; cited from earlier work
LimF [2] = assay: Prenylation of high molecular weight proteins by LimF (MALDI-TOF-MS); type: biochemical, Limnothrix sp. CACIAM 69d; conditions: 10 μM protein, 10 μM LimF, 2 mM GPP, 20 hours
Description: Moreover, His-prenylation by LimF was also performed for two types of high molecular weight proteins (acetylated bovine-derived albumin (Ac-BSA (Wako Pure Chemical Industries)) and horse-derived glutathione-S-transferase (GST (Sigma-Aldrich Japan))). Specifically, 10 μM Ac-BSA or 10 μM GST was reacted for 20 hours in the presence of 10 μM LimF and 2 mM GPP under previously optimized standard conditions. After desalting the reaction solution after the reaction by solid phase extraction (SPE C-TIP (Nikkyo Technos)), using sinapinic acid as a matrix, analysis was performed using a matrix-assisted laser desorption ionization-time-of-flight mass spectrometer (MALDI-TOF-MS, ultrafleXtreme manufactured by Bruker Daltonics).

bcLimE2 = biological target: T2, bcLimE2
T2 chain: RYPHEEIP

teR6-H5A = biological target: T3, teR6-H5A
T3 chain: FRGNATYIPC

T1 sequence (P43220 24-463): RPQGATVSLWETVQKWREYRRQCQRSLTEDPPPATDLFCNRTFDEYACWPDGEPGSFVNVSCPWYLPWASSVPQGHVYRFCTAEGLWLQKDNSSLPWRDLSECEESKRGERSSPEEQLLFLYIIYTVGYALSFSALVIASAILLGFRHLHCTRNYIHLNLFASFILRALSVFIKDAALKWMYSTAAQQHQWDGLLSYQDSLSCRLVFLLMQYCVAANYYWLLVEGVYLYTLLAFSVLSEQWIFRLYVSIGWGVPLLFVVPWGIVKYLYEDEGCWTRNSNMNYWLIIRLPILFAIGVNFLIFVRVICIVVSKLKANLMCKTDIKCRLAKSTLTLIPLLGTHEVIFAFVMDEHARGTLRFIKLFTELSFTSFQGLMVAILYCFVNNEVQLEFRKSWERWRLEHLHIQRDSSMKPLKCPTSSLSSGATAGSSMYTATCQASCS
DPP-4, sequence (P27487 whole entry, species assumed): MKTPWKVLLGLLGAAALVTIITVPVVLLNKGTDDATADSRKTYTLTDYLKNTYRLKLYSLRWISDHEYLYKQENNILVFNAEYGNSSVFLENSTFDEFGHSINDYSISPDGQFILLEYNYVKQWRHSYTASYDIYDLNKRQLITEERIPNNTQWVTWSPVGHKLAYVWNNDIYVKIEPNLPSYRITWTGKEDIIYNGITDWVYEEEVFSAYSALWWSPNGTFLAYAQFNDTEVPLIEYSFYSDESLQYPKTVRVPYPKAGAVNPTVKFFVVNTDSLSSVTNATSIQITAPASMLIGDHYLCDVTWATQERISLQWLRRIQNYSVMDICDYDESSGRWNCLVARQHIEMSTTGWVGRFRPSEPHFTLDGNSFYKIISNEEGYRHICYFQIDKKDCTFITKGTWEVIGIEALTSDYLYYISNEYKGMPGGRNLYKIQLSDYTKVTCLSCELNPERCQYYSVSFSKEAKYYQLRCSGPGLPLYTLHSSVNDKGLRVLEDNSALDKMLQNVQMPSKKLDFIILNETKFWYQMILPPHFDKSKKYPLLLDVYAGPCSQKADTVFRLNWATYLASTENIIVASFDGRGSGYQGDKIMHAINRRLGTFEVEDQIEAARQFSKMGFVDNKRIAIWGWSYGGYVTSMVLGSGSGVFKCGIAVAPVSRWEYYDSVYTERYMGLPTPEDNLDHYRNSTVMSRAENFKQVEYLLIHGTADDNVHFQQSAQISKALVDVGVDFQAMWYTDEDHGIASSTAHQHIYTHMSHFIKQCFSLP

Question: With `CC[C@H](C)[C@H](NC(=O)C(Cc1ccccc1)NC(=O)[C@H](CCC(=O)O)NCCCCN[C@@H](CCCCN)C(=O)C(=O)[C@H](C)NC(=O)C(CCC(N)=O)NC(=O)CNC(=O)C(CCC(=O)O)NC(=O)[C@H](CC(C)C)NC(=O)C(Cc1ccc(O)cc1)NC(=O)[C@H](CO)NC(=O)C(CO)NCCCCN[C@H](C(=O)C(=O)[C@H](CC(N)=O)NC(=O)C(CO)NC(=O)[C@@H](NC(=O)C(Cc1ccccc1)NC(=O)[C@@H](NC(=O)CNC(=O)[C@H](CCC(=O)O)NC(=O)C(C)NC(=O)[C@@H](N)Cc1cnc[nH]1)[C@@H](C)O)[C@@H](C)O)C(C)C)C(=O)NC(C)C(=O)N[C@@H](Cc1c[nH]c2ccccc12)C(=O)NC(CC(C)C)C(=O)N[C@H](C(=O)NC(CCCCN)C(=O)NCC(=O)C(=O)[C@H](CCCNC(=N)N)NN)C(C)C` (some centres unmarked) [GLP-1, HAEGTFTSDVSSYLEGGAAKEFIAWLVKGR] as the molecule, how does the “His-prenylation efficiency (LC/MS)” value (LimF [1]) read?
Answer: 75%

Question: What about the “cAMP production activation ability” value (GLP1R) of the same molecule?
Answer: strongly activated cAMP production

Question: What about the “serum stability (remaining peptide by LC/MS)” value (Serum stability test) of the same molecule?
Answer: rapid degradation

Question: And the “stability in DPP-4 digestion test (remaining peptide by LC/MS)” value (DPP-4)?
Answer: rapid degradation

Question: Which results are given for `CC(C)(C)OC(=O)N[C@@H](Cc1ccc(O)cc1)C(=O)O` [N-boc-L-Tyr]?
Answer: Kcat (PagF): 0.183 s⁻¹; Km (PagF): 6.2 mM; Kcat (LynF): 0.0177 s⁻¹; Km (LynF): 14 mM

Question: For “Ac-BSA: acetylated bovine-derived albumin”, which “number of prenylations by LimF (mass spectrum)” value (LimF [2]) is on record?
Answer: two locations

B1: LimF (wild-type) (protein)
chain: MKKRKSSKVFKSTIAPEEKLRYIGNHKQAFDIEPLYPLALFEEFVATTGDCIIECSGKIKQDQLYPARIDLQFSDKHHFHNIHTSIDFLKRAASRTDVNLNLDILATFLAGNFDYSKVQNILAGIDLRQNLGESKLKLFIRIGDYPAKMAVAKHLCNITPESEAMLRSDTLHIGFDFYLDGRSAIELYPELKKDEFNHPFIYNQLKTILSPEALKPLPLCNLFGIGLSPANEANVLYYHLENIEDFLSYFPINDTARRVHDFYLQQEGSRRMWVALSESEMKAGRINNVNLYYSKAFTSQNP
Question: For B1, which Km (mM), steady-state kinetics of His-prenylation with GPP (bcLimE2) is on record?
Answer: 0.31 mM

Question: What about the Km (mM), steady-state kinetics of Tyr-prenylation with GPP (teR6-H5A) of the same molecule?
Answer: 7.3 mM
